Source: the CheMixHub ionic liquid set
± gives the uncertainty stated by the source.

Assay: xn = mol fraction of the nth substance listed

CCCC[n+]1ccn(C)c1.F[B-](F)(F)F + O + NCCO
100 kPa, x1 = 0.2723, x2 = 0.2627
Conditions	viscosity [mPa·s]
303 K	16.89 ± 0.37
308 K	13.81 ± 0.3
318 K	9.78 ± 0.21
323 K	8.34 ± 0.18

CCCCCCCCn1cc[n+](C)c1.O=S(=O)([N-]S(=O)(=O)C(F)(F)F)C(F)(F)F + O=C1CCCO1
100 kPa, frequency 0.005 MHz
Conditions	electrical conductivity [S/m]
293.15 K, x2 = 0.5048	0.325 ± 0.01
298.15 K, x2 = 0	0.136 ± 0.004
298.15 K, x2 = 0.6963	0.703 ± 0.021
303.15 K, x2 = 0.9514	0.796 ± 0.026
308.15 K, x2 = 0	0.207 ± 0.006
313.15 K, x2 = 0.2993	0.401 ± 0.012
318.15 K, x2 = 0	0.307 ± 0.009
318.15 K, x2 = 0.0997	0.342 ± 0.01
318.15 K, x2 = 0.8999	1.5 ± 0.046
323.15 K, x2 = 0.2993	0.534 ± 0.016
323.15 K, x2 = 0.9514	1.03 ± 0.035

CCC[N+]1(C)CCCC1.O=S(=O)([N-]S(=O)(=O)C(F)(F)F)C(F)(F)F + O=C1CCCO1
101 kPa, frequency 0.0005 MHz
Conditions	electrical conductivity [S/m]
278.15 K, x1 = 0.3874	0.573 ± 0.023
308.15 K, x1 = 0.1741	1.63 ± 0.065
328.15 K, x1 = 0.06566	1.63 ± 0.065
348.15 K, x1 = 0.1741	2.59 ± 0.1
348.15 K, x1 = 0.3874	2.27 ± 0.09
358.15 K, x1 = 0.06566	2.1 ± 0.084

101 kPa
Conditions	viscosity [mPa·s]
278.15 K, x1 = 1	163.6 ± 7
288.15 K, x1 = 0.1741	5.49 ± 0.22
328.15 K, x1 = 0.1741	2.63 ± 0.11
338.15 K, x1 = 0.06566	1.491 ± 0.061
338.15 K, x1 = 0.1741	2.274 ± 0.092
348.15 K, x1 = 0.1741	1.993 ± 0.081
358.15 K, x1 = 0.1741	1.768 ± 0.072
358.15 K, x1 = 1	10.34 ± 0.42

CCC1COC(=O)O1 (centres undefined) + O=S(=O)([N-]S(=O)(=O)C(F)(F)F)C(F)(F)F.[Li+]
298.1 K, 100 kPa, x2 = 0.333
Conditions	electrical conductivity [S/m]	viscosity [mPa·s]
–	0.02 ± 0.01	323 ± 20

CCC1COC(=O)O1 (centres undefined) + O=S(=O)([N-]S(=O)(=O)C(F)(F)F)C(F)(F)F.[Li+] + COC(=O)OC
298.15 K, 100 kPa
Conditions	viscosity [mPa·s]
x2 = 0.333, x3 = 0	323 ± 20
x2 = 0.333, x3 = 0.3335	157 ± 7
x2 = 0.333, x3 = 0.5002	93.7 ± 3.4

CCCC[n+]1ccn(C)c1.F[B-](F)(F)F + OCC(F)(F)F
101 kPa, x2 = 0
Conditions	viscosity [mPa·s]
278.15 K	360 ± 11
283.15 K	255 ± 7
288.15 K	186 ± 5
293.15 K	139 ± 3
298.15 K	106 ± 2
303.15 K	82.2 ± 1.7
308.15 K	65 ± 1.3
313.15 K	52.2 ± 1.1
318.15 K	42.6 ± 0.9
323.15 K	35.2 ± 0.7
328.15 K	29.5 ± 0.6
333.15 K	25 ± 0.5

CC[n+]1ccn(C)c1.N#C[N-]C#N + OCC(F)(F)F
100 kPa
Conditions	viscosity [mPa·s]
298.15 K, x1 = 0.2936	4.06 ± 0.6
298.15 K, x1 = 0.3935	5.03 ± 0.6
303.15 K, x1 = 0.1031	2.18 ± 0.6
303.15 K, x1 = 0.5915	6.32 ± 0.6
308.15 K, x1 = 0.8915	8.72 ± 0.61
313.15 K, x1 = 1	8.86 ± 0.61
318.15 K, x1 = 0.1957	2.07 ± 0.6
318.15 K, x1 = 0.2936	2.62 ± 0.6
